Experimental data reported in patent publication US20040254123A1, “Malignant cell differentiation inducer compositions and utilization of the same” (priority 2001, published 2004).

Key:
[1] = system: human neuroblastoma IMR-32 cells; test: Pseudo-ganglion formation / differentiation of IMR-32 cells (phase-contrast microscope); type: cell-based
From the text: As [^3H] acetyl-coenzyme A (acetyl-CoA), a product manufactured by Amersham was used, and as propidium iodide, acridine orange and choline chloride, products manufactured by Sigma were used. As fetal bovine serum (hereinafter, abbreviated as FCS), a product manufactured by Cansera International was used.
Morphological change of the cells, and the number of pseudo-ganglia formed were observed under a phase-contrast microscope (magnification: 200).

[2] = system: rat glioma C6 cells; test: Number of surviving C6 cells after SBA treatment (trypan blue); type: cell-based; details: 3 days treatment
Protocol: Rat glioma C6 cells obtained from Japanese Cancer Research Resource Bank (JCRB) were inoculated on a medium in an amount of 1×10^5 cells/schale, cultured for 24 hours. […] Then, the cells were dyed with 0.2% trypan blue, then, the number of surviving cells was counted. The counted value of cell number represents average value±standard error (SE) of three continuous tests [*P<0.00301 and *P<0.00001 (in comparison with contrast)]. The counted value is shown as a bar graph in FIG. 3. This test was conducted in the absence of SBA, as a control test.

[3] = system: rat glioma C6 cells; test: Morphological change of C6 cells (phase-contrast microscope); type: cell-based; details: 125 μg/ml SBA, 3 days
[4] = system: patients having a cancer or tumor; test: Clinical trial, intravenous SBA in patients having a cancer or tumor; type: in vivo, human
From the text: SBA can be administered, not only intravenously, but also into an abdominal cavity or subcutaneously, or orally.

[5] = system: patient having a cancer or tumor; details: intravenous 1.5 to 6 g per day per adult; cited from earlier work

SMILES: O=C1O[C@H]([C@@H]2COC(c3ccccc3)O2)C(O)=C1O (stereo partly drawn) [SBA, mono-sodium 5,6-O-benzylidene-L-ascorbate]
- survived cells induced to differentiate into neurocytes having neuritis ([1]; 500 μg/ml SBA): 20 to 30%
- morphological change / formation of pseudo-ganglia ([1]; SBA treatment 48 hours): IMR-32 cells form pseudo-ganglia
- CD50 (proliferation of C6 cells) [2]: 250 µg/mL
- morphological change of C6 cells [3]: Formation of astrocytes was recognized
- effect on cancer in patient with attendant rheumatoid arthritis ([4]; 3 mg/body once per day): the cancer reduces
- differentiation of cancer or tumor cells in patients ([4]; intravenous 1 mg/body to 10 mg/body once per day per adult, 35 examples): induce differentiation of cancer cells or tumor cells into normal cells efficiently
- differentiation of malignant cells forming new blood vessel ([4]; patient with augmented new blood vessel in eye and eyeground hemorrhage, intravenous 1 to 10 mg/body once per day): induces differentiation of malignant cells forming new blood vessel into normal cells
- total dimension of the carcinoma or tumor [5]: decreases
